The subject of the assay is PK1 neuroblastoma cells exposed to TPrP. Description: cells. The class given is cell-based. As to conditions: read-out: TPrP EC50.

pEC50: −log10 of the molar value. Several values for one entry are separate records, joined by “and”; a condition that tells them apart may be missing. Equal entries are not always repeated. Where two headings read alike, the source gives them in different places.

What is called pEC50 is the negative decadic logarithm of the EC50, by convention in mol/L. As for `CC(=O)c1cccc(Nc2nnc(Cc3ccncc3)c3ccccc23)c1` [SR005], the pEC50 was 7.70 and 7.60. Besides, where the note is “PK-1, 96 h”, the pEC50 is 7.82. For `c1ccc2c(c1)CCC2Nc1nnc(Cc2ccncc2)c2ccccc12` (centres unmarked) [SR-27884], the negative-log EC50 (pEC50) (PK-1, 96 h) is 6.30. As to `c1ccc2c(c1)CC(Nc1nnc(Cc3ccncc3)c3ccccc13)C2` [SR-27885], the pEC50 (PK-1, 96 h) was 6.70.

In the case of `COc1ccc(CNc2nnc(Cc3ccncc3)c3ccccc23)cc1OC` [SR-27886], under “PK-1, 96 h”, the pEC50 was 6.82.

As to `c1ccc2[nH]c(CNc3nnc(Cc4ccncc4)c4ccccc34)nc2c1` [SR-27887], the pEC50 (PK-1, 96 h) was 6.66. Consider `c1ccc2oc(CNc3nnc(Cc4ccncc4)c4ccccc34)nc2c1` [SR-27888], for which the pEC50 (PK-1, 96 h) is 7.35.

Turning to `c1ccc2c(c1)CC(Nc1nnc(Cc3ccncc3)c3ccccc13)CO2` (centres unmarked) [SR-27889], the pEC50 (PK-1, 96 h) was 6.55. The same measure, in the same setting: next, `c1ccc2c(c1)CC(CNc1nnc(Cc3ccncc3)c3ccccc13)CO2` (centres unmarked) [SR-27890]: 6.78; `c1ccc(OCCNc2nnc(Cc3ccncc3)c3ccccc23)cc1` [SR-27892]: 6.30. The same measure, in the same setting: under `CC(O)c1cccc(Nc2nnc(Cc3ccncc3)c3ccccc23)c1` (centres unmarked) [SR-29684] stands 8.70; under `c1ccc2c(NCC3CCCO3)nnc(Cc3ccncc3)c2c1` (centres unmarked) [SR-30004], 6.82. On the same count and under the same terms, under `c1coc(CNc2nnc(Cc3ccncc3)c3ccccc23)c1` [SR-30005] stands 6.85.

Regarding `c1ccc2[nH]c(CNc3nnc(Cc4ccncc4)c4ccccc34)cc2c1` [SR-30006], the negative-log EC50 (pEC50) (PK-1, 96 h) was 7.30. Same read-out and setting: under `c1ccc2c(NCC3CCCCO3)nnc(Cc3ccncc3)c2c1` (centres unmarked) [SR-30007] stands 7.22.

Consider `c1ccc2c(NCC3CCOCC3)nnc(Cc3ccncc3)c2c1` [SR-30008], for which, under “PK-1, 96 h”, the pEC50 is 7.82. For the compound `c1ccc2oc(Nc3nnc(Cc4ccncc4)c4ccccc34)nc2c1` [SR-30010], for the setting “PK-1, 96 h”, the negative-log EC50 (pEC50) is 8.70. As to `c1ccc2oc(CNc3nnc(Cc4ccncc4)c4ccccc34)cc2c1` [SR-30011], for the setting “PK-1, 96 h”, the pEC50 was 8.70. In the case of `CC1(c2cccc(Nc3nnc(Cc4ccncc4)c4ccccc34)c2)OCCO1` [SR-30012], the pEC50 (PK-1, 96 h) is 8.70. Turning to `C/C(=N\O)c1cccc(Nc2nnc(Cc3ccncc3)c3ccccc23)c1` [SR-30013], where the note is “PK-1, 96 h”, the pEC50 was 8.70. The same measure, in the same setting: under `CO/N=C(\C)c1cccc(Nc2nnc(Cc3ccncc3)c3ccccc23)c1` [SR-30014] stands 8.70; under `CC(=C(F)F)c1cccc(Nc2nnc(Cc3ccncc3)c3ccccc23)c1` [SR-31144], less than 6.40. Still for that read-out and setting: next, `CC(=O)c1cccc(Nc2nnc(Cc3cc(C)nc(C)c3)c3ccccc23)c1` [SR-32064]: less than 6.40; `Cc1cc(Cc2nnc(Nc3nc4ccccc4o3)c3ccccc23)cc(C)n1` [SR-32065]: less than 6.40.

As to `Cc1ccc2nc(Nc3nnc(Cc4ccncc4)c4ccccc34)oc2c1` [SR-32066], for the setting “PK-1, 96 h”, the pEC50 was 7.30. The same measure, in the same setting: next, `Fc1ccc2oc(Nc3nnc(Cc4ccncc4)c4ccccc34)nc2c1` [SR-32067]: 7.70; `O=[N+]([O-])c1ccc2oc(Nc3nnc(Cc4ccncc4)c4ccccc34)nc2c1` [SR-32068]: 7.70. Consider `O=[N+]([O-])c1cccc2oc(Nc3nnc(Cc4ccncc4)c4ccccc34)nc12` [SR-32069], for which the pEC50 (PK-1, 96 h) was 8.10. With `Fc1cccc2oc(Nc3nnc(Cc4ccncc4)c4ccccc34)nc12` [SR-32070], the pEC50 (PK-1, 96 h) was 7.70. As for `Fc1ccc2nc(Nc3nnc(Cc4ccncc4)c4ccccc34)oc2c1` [SR-32071], under “PK-1, 96 h”, the pEC50 was 7.05. For `Cc1cccc2oc(Nc3nnc(Cc4ccncc4)c4ccccc34)nc12` [SR-32072], the pEC50 (PK-1, 96 h) is 7.52. As for `c1ccc2cc3oc(Nc4nnc(Cc5ccncc5)c5ccccc45)nc3cc2c1` [SR-32073], for the setting “PK-1, 96 h”, the pEC50 is 6.60.

Regarding `Fc1cccc2nc(Nc3nnc(Cc4ccncc4)c4ccccc34)oc12` [SR-32074], for the setting “PK-1, 96 h”, the pEC50 is 7.52. `Cc1cccc2nc(Nc3nnc(Cc4ccncc4)c4ccccc34)oc12` [SR-32075]: the pEC50 (PK-1, 96 h) is less than 6.40. Same read-out and setting: next, `COc1ccc2oc(Nc3nnc(Cc4ccncc4)c4ccccc34)nc2c1` [SR-32076]: 7.70; `c1ccc2c(c1)ccc1oc(Nc3nnc(Cc4ccncc4)c4ccccc34)nc12` [SR-32077]: 6.87. As for `CC(=O)c1cccc(Nc2nnc(Cc3ccnc(C)c3)c3ccccc23)c1` [SR-33871], the pEC50 (PK-1, 96 h) was 7.15. Take `Cc1cc(Cc2nnc(Nc3nc4ccccc4o3)c3ccccc23)ccn1` [SR-33872]: under “PK-1, 96 h”, the pEC50 was less than 6.30.

Regarding `CC(=O)c1cccc(Nc2nnc(Cc3ccnc(C(F)(F)F)c3)c3ccccc23)c1` [SR-33873], the pEC50 (PK-1, 96 h) is less than 6.30.

As to `COc1cc(Cc2nnc(Nc3cccc(C(C)=O)c3)c3ccccc23)ccn1` [SR-33874], the pEC50 (PK-1, 96 h) is less than 6.30.

`COc1cc(Cc2nnc(NCc3cc4ccccc4o3)c3ccccc23)ccn1` [SR-33875]: where the note is “PK-1, 96 h”, the negative logarithm of the EC50 (pEC50) was less than 6.30.

With `CC(=O)c1cccc(Nc2nnc(Cc3ccncc3C(F)(F)F)c3ccccc23)c1` [SR-33876], for the setting “PK-1, 96 h”, the pEC50 is less than 6.30. The same measure, in the same setting: under `CC(=O)c1cccc(Nc2nnc(C(C)c3ccncc3)c3ccccc23)c1` (centres unmarked) [SR-34644] stands 7.35; under `CC(c1ccncc1)c1nnc(NCc2cc3ccccc3o2)c2ccccc12` (centres unmarked) [SR-34645], roughly 6.30; under `CC(=O)c1cccc(Nc2nnc(C(c3ccncc3)C(F)(F)F)c3ccccc23)c1` (centres unmarked) [SR-34646], less than 6.30. As to `O=S(=O)(c1cccc(Nc2nnc(Cc3ccncc3)c3ccccc23)c1)N1CCOCC1` [SR-35424], the pEC50 (PK-1, 96 h) is 8.05. As for `O=S(=O)(c1ccc(Nc2nnc(Cc3ccncc3)c3ccccc23)cc1)N1CCOCC1` [SR-35425], for the setting “PK-1, 96 h”, the pEC50 is 8.30.

As for `c1cc(Nc2nnc(Cc3ccncc3)c3ccccc23)cc(C2COC2)c1` [SR-35426], for the setting “PK-1, 96 h”, the negative-log EC50 (pEC50) was 8.00. Regarding `O=S(=O)(c1cccc(Nc2nnc(Cc3ccncc3)c3ccccc23)c1)N1C2CCC1COC2` [SR-35427], the pEC50 (PK-1, 96 h) was 8.15.

Take `O=S(=O)(c1cccc(Nc2nnc(Cc3ccncc3)c3ccccc23)c1)N1CC2CCC(C1)O2` [SR-35428]: under “PK-1, 96 h”, the pEC50 is 8.22. Still for that read-out and setting: under `Cc1cc(C(C)c2nnc(NCC3CCOCC3)c3ccccc23)ccn1` (centres unmarked) [SR-35429, 4-(1-(2-methylpyridin-4-yl)ethyl)-N-((tetrahydro-2H-pyran-4-yl)methyl)phthalazin-1-amine] stands 7.59; under `Cc1cc(C(C)c2nnc(NC3CCc4ccccc43)c3ccccc23)ccn1` (centres unmarked) [SR-35430], less than 6.05; under `Cc1cc(C(C)c2nnc(Nc3cccc(C4COC4)c3)c3ccccc23)ccn1` (centres unmarked) [SR-35431], less than 6.05. With `Cc1cc(C(C)c2nnc(NCC3COc4ccccc4C3)c3ccccc23)ccn1` (centres unmarked) [SR-35432], the negative logarithm of the EC50 (pEC50) (PK-1, 96 h) is less than 6.05. Same read-out and setting: next, `Cc1cc(C(C)c2nnc(NCc3ccco3)c3ccccc23)ccn1` (centres unmarked) [SR-35433]: less than 6.05.

`Clc1ccc(Nc2nnc(Cc3ccncc3)c3ccccc23)cc1` [vatalanib, reference compound]: the pEC50 (PK-1, 96 h) is 7.22.

The values are drawn from patent US20240174651A1, “COMPOUNDS AND USE THEREOF FOR TREATMENT OF NEURODEGENERATIVE, DEGENERATIVE AND METABOLIC DISORDERS” (THE SCRIPPS RESEARCH INSTITUTE, priority 2021, published 2024).
